Measurements taken from ChEMBL document CHEMBL1133309, “Computational binding studies of human pp60c-src SH2 domain with a series of nonpeptide, phosphophenyl-containing ligands” (Bioorg Med Chem Lett, 2000).

Target: Proto-oncogene tyrosine-protein kinase Src (Homo sapiens, UniProt P12931)
Assay: Binding affinity for Human pp60c-src SH2 domain

Chain of Proto-oncogene tyrosine-protein kinase Src (P12931 2-536 limits assumed): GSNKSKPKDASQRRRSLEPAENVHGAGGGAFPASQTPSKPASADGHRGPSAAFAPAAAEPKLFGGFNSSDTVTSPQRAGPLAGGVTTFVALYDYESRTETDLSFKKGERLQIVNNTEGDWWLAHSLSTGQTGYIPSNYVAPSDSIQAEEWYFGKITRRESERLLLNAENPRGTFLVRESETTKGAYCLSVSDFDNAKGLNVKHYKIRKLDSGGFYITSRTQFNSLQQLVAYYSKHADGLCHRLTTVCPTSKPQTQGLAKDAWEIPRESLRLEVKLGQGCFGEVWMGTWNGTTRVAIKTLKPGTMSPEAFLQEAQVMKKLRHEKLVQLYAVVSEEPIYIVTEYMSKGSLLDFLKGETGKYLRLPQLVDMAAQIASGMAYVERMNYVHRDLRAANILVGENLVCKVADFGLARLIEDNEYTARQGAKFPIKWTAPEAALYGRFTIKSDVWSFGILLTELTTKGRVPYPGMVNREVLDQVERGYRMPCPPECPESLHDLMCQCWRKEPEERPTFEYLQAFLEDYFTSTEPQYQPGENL

Row | Compound | IC50 [µM]
1 | CNC(=O)c1cc(CNC(=O)c2ccc(OP(=O)(O)O)cc2)ccc1OCC1CCCCC1 | 30
2 | CC(=O)c1cc(CNC(=O)c2ccc(OP(=O)(O)O)cc2)ccc1OCC1CCCCC1 | 69
3 | O=C(NCc1ccc(OCC2CCCCC2)cc1)c1ccc(OP(=O)(O)O)cc1 | > 100
